Blank lines part the entries; values can stand above or below the molecule they belong to.
What was measured:
[1] = Particle size and PDI of nucleic acid lipid nanoparticle preparations by dynamic light scattering; format: physicochemical
How it was run: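 Nanoparticle suspension (about 0.04 mg/mL mRNA) diluted in ultrapure water, mixed by gentle pipetting; particle size measured by dynamic light scattering. Zeta potential measured on the recovered sample after further dilution in ultrapure water.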

mice = assay: In vivo delivery of FLuc-mRNA lipid nanoparticles in mice, in vivo imaging (IVIS); conditions: for IVIS: Fluc-mRNA
How it was run: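 Mice (n=3) received about 75 μL FLuc-mRNA LNP per mouse intramuscularly (rectus femoris), intravenously (tail vein), intraperitoneally or subcutaneously (back). After injection, D-luciferin (200 μL, 15 mg/mL) was given i.p. 10-15 min before IVIS imaging.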

[2] = DMG-PEG2000:DSPC:Chol:compound 1.40:11.15:38.95:48.50, N/P 20
[3] = IM, DMG-PEG2000:DSPC:Chol:compound 1.40:11.15:38.95:48.50, N/P 20
[4] = IV, organ not given, DMG-PEG2000:DSPC:Chol:compound 1.40:11.15:38.95:48.50, N/P 20
[5] = IV, body, DMG-PEG2000:DSPC:Chol:compound 1.40:11.15:38.95:48.50, N/P 20
[6] = IV, liver, DMG-PEG2000:DSPC:Chol:compound 1.40:11.15:38.95:48.50, N/P 20
[7] = IV, lung, DMG-PEG2000:DSPC:Chol:compound 1.40:11.15:38.95:48.50, N/P 20
[8] = IV, spleen, DMG-PEG2000:DSPC:Chol:compound 1.40:11.15:38.95:48.50, N/P 20
[9] = DMG-PEG2000:DSPC:Chol:compound 1.40:11.15:38.95:48.50, N/P 30
[10] = IM, DMG-PEG2000:DSPC:Chol:compound 1.40:11.15:38.95:48.50, N/P 30
[11] = IV, organ not given, DMG-PEG2000:DSPC:Chol:compound 1.40:11.15:38.95:48.50, N/P 30
[12] = DMG-PEG2000:DSPC:Chol:compound 1.40:11.15:38.95:48.50, N/P 40
[13] = IV, liver, DMG-PEG2000:DSPC:Chol:compound 1.40:11.15:38.95:48.50, N/P 40
[14] = IV, lung, DMG-PEG2000:DSPC:Chol:compound 1.40:11.15:38.95:48.50, N/P 40
[15] = IV, spleen, DMG-PEG2000:DSPC:Chol:compound 1.40:11.15:38.95:48.50, N/P 40
[16] = IV, body, DMG-PEG2000:DSPC:Chol:compound 1.40:11.15:38.95:48.50, N/P 30
[17] = IV, liver, DMG-PEG2000:DSPC:Chol:compound 1.40:11.15:38.95:48.50, N/P 30
[18] = IV, lung, DMG-PEG2000:DSPC:Chol:compound 1.40:11.15:38.95:48.50, N/P 30
[19] = IV, spleen, DMG-PEG2000:DSPC:Chol:compound 1.40:11.15:38.95:48.50, N/P 30

SMILES: CCCCCCCCCCCCOC(=O)C(O)CN(CCOCCOCCN(CC(O)C(=O)OCCCCCCCCCCCC)CC(O)C(=O)OCCCCCCCCCCCC)CC(O)C(=O)OCCCCCCCCCCCC (stereo not drawn) [Compound L0309]
PDI [1, 2]: 0.11 | Particle size (nm) [1, 2]: 180.63 nm | IVIS (mice; [3]): 3.09E+06 | IVIS (mice; [5]): 1.24E+06 | % of organ targeting (mice; [6]): 21.49% | IVIS (mice; [6]): 5.48E+05 | % of organ targeting (mice; [7]): 3.37% | IVIS (mice; [7]): 8.60E+04 | % of organ targeting (mice; [8]): 75.14% | IVIS (mice; [8]): 1.91E+06

SMILES: CCCCCCCCCCCCOC(=O)C(O)CN(C)CCCN(C)CCCN(C)CC(O)C(=O)OCCCCCCCCCCCC (stereo not drawn) [Compound L0310]
PDI [1, 9]: 0.22 | Particle size (nm) [1, 9]: 190.63 nm | IVIS (mice; [10]): 1.53E+05 | IVIS (mice; [11]): 2.77E+05

SMILES: CCCCCCCCCCCCNC(=O)C(O)CN(C)CCCN(C)CCCN(C)CC(O)C(=O)NCCCCCCCCCCCC (stereo not drawn) [Compound L0311]
PDI [1, 9]: 0.16 | Particle size (nm) [1, 9]: 111.00 nm | IVIS (mice; [10]): 2.23E+05 | IVIS (mice; [11]): 4.57E+05

SMILES: CCCCCCCCCCNC(=O)C(O)CN(C)CCCN(C)CCCN(C)CC(O)C(=O)NCCCCCCCCCC (stereo not drawn) [Compound L0327]
PDI [1, 9]: 0.18 | Particle size (nm) [1, 9]: 108.57 nm | IVIS (mice; [10]): 4.85E+05 | IVIS (mice; [11]): 2.98E+05

SMILES: CCCCCCCCCCCCNCC(O)CN(CCCNC(=O)CCN(CCCN(CCC(=O)NCCCN(CC(O)C(=O)NCCCCCCCCCCCC)CC(O)C(=O)NCCCCCCCCCCCC)CCC(=O)NCCCN(CC(O)C(=O)NCCCCCCCCCCCC)CC(O)C(=O)NCCCCCCCCCCCC)CCC(=O)NCCCN(CC(O)C(=O)NCCCCCCCCCCCC)CC(O)C(=O)NCCCCCCCCCCCC)CC(O)C(=O)NCCCCCCCCCCCC (stereo not drawn) [Compound L0328]
PDI [1, 12]: 0.11 | Particle size (nm) [1, 12]: 150.47 nm | IVIS (mice; IM, DMG-PEG2000:DSPC:Chol:compound 1.40:11.15:38.95:48.50, N/P 40): 9.40E+05 | IVIS (mice; IV, body, DMG-PEG2000:DSPC:Chol:compound 1.40:11.15:38.95:48.50, N/P 40): 3.55E+07 | % of organ targeting (mice; [13]): 51.92% | IVIS (mice; [13]): 5.62E+06 | % of organ targeting (mice; [14]): 1.56% | IVIS (mice; [14]): 1.69E+05 | % of organ targeting (mice; [15]): 46.52% | IVIS (mice; [15]): 5.04E+06

SMILES: CCCCCCOCOCCCCCCOC(=O)C(O)CN(CCOCCOCCN(CC(O)C(=O)OCCCCCCOCOCCCCCC)CC(O)C(=O)OCCCCCCOCOCCCCCC)CC(O)C(=O)OCCCCCCOCOCCCCCC (stereo not drawn) [Compound L0329]
PDI [1, 2]: 0.18 | Particle size (nm) [1, 2]: 158.43 nm | IVIS (mice; [3]): 4.22E+06 | IVIS (mice; [5]): 3.09E+06 | % of organ targeting (mice; [6]): 25.67% | IVIS (mice; [6]): 5.34E+05 | % of organ targeting (mice; [7]): 5.35% | IVIS (mice; [7]): 1.11E+05 | % of organ targeting (mice; [8]): 68.99% | IVIS (mice; [8]): 1.44E+06

SMILES: CCCCCCOCOCCCCCCOC(=O)C(O)CN(CCOCCN(CC(O)C(=O)OCCCCCCOCOCCCCCC)CC(O)C(=O)OCCCCCCOCOCCCCCC)CC(O)C(=O)OCCCCCCOCOCCCCCC (stereo not drawn) [Compound L0330]
PDI [1, 2]: 0.10 | Particle size (nm) [1, 2]: 145.77 nm | IVIS (mice; [3]): 1.35E+06 | IVIS (mice; [5]): 2.05E+06 | % of organ targeting (mice; [6]): 29.70% | IVIS (mice; [6]): 2.90E+05 | % of organ targeting (mice; [7]): 4.48% | IVIS (mice; [7]): 4.37E+04 | % of organ targeting (mice; [8]): 65.82% | IVIS (mice; [8]): 6.43E+05

SMILES: CCCCCCOCOCCCCCCOC(=O)C(O)CN(C)CCCN(C)CCCN(C)CC(O)C(=O)OCCCCCCOCOCCCCCC (stereo not drawn) [Compound L0331]
PDI [1, 9]: 0.06 | Particle size (nm) [1, 9]: 122.67 nm | IVIS (mice; [10]): 3.39E+06 | IVIS (mice; [11]): 9.27E+05

SMILES: CCCCCCOC(C)OCCCCCCOC(=O)C(O)CN(CCN(C)CCN(CC(O)C(=O)OCCCCCCOC(C)OCCCCCC)CC(O)C(=O)OCCCCCCOC(C)OCCCCCC)CC(O)C(=O)OCCCCCCOC(C)OCCCCCC (stereo not drawn) [Compound L0333]
PDI [1, 9]: 0.09 | Particle size (nm) [1, 9]: 130.70 nm | IVIS (mice; [10]): 1.70E+06 | IVIS (mice; [16]): 6.44E+08 | % of organ targeting (mice; [17]): 74.80% | IVIS (mice; [17]): 1.29E+08 | % of organ targeting (mice; [18]): 4.15% | IVIS (mice; [18]): 7.15E+06 | % of organ targeting (mice; [19]): 21.05% | IVIS (mice; [19]): 3.63E+07

SMILES: CC/C=C\CCOCOCCCCCCOC(=O)C(O)CN(CCN(C)CCN(CC(O)C(=O)OCCCCCCOCOCC/C=C\CC)CC(O)C(=O)OCCCCCCOCOCC/C=C\CC)CC(O)C(=O)OCCCCCCOCOCC/C=C\CC (stereo not drawn) [Compound L0334]
PDI [1, 9]: 0.06 | Particle size (nm) [1, 9]: 146.13 nm | IVIS (mice; [10]): 6.25E+05 | IVIS (mice; [16]): 5.29E+08 | % of organ targeting (mice; [17]): 57.03% | IVIS (mice; [17]): 1.01E+08 | % of organ targeting (mice; [18]): 6.95% | IVIS (mice; [18]): 1.22E+07 | % of organ targeting (mice; [19]): 36.03% | IVIS (mice; [19]): 6.35E+07

Further lines, with some results ahead:

PDI [1, 2]: 0.10 | Particle size (nm) [1, 2]: 132.67 nm
SMILES: CCCCCCCCCCCCNC(=O)C(O)CN(CCCCCCCN(CC(O)C(=O)NCCCCCCCCCCCC)CC(O)C(=O)NCCCCCCCCCCCC)CC(O)C(=O)NCCCCCCCCCCCC (stereo not drawn) [Compound L0308]
IVIS (mice; [3]): 9.07E+05 | IVIS (mice; [4]): 1.99E+05

PDI [1, 2]: 0.12 | Particle size (nm) [1, 2]: 172.73 nm
SMILES: CCCCCCCCCCCCOC(=O)C(O)CN(CCOCCN(CC(O)C(=O)OCCCCCCCCCCCC)CC(O)C(=O)OCCCCCCCCCCCC)CC(O)C(=O)OCCCCCCCCCCCC (stereo not drawn) [Compound L0312]
IVIS (mice; [3]): 9.71E+05 | IVIS (mice; [4]): 5.52E+05

PDI [1, 2]: 0.12 | Particle size (nm) [1, 2]: 94.88 nm
SMILES: CCCCCCCCCCNC(=O)C(O)CN(CCOCCOCCN(CC(O)C(=O)NCCCCCCCCCC)CC(O)C(=O)NCCCCCCCCCC)CC(O)C(=O)NCCCCCCCCCC (stereo not drawn) [Compound L0325]
IVIS (mice; [3]): 5.09E+06 | IVIS (mice; [4]): 1.95E+07

PDI [1, 2]: 0.14 | Particle size (nm) [1, 2]: 103.37 nm
SMILES: CCCCCCCCCCNC(=O)C(O)CN(CCOCCN(CC(O)C(=O)NCCCCCCCCCC)CC(O)C(=O)NCCCCCCCCCC)CC(O)C(=O)NCCCCCCCCCC (stereo not drawn) [Compound L0326]
IVIS (mice; [3]): 6.75E+05 | IVIS (mice; [4]): 1.02E+06

PDI [1, 9]: 0.18 | Particle size (nm) [1, 9]: 150.70 nm
SMILES: CCCCCCCCCCCCNCC(O)CN(CCN(CCN(CC(O)CNCCCCCCCCCCCC)CC(O)C(=O)NCCCCCCCCCCCC)CC(O)C(=O)NCCCCCCCCCCCC)CC(O)C(=O)NCCCCCCCCCCCC (stereo not drawn) [Compound L0332]
IVIS (mice; [10]): 7.75E+05 | IVIS (mice; [11]): 3.67E+05
